Reference: ChEMBL document CHEMBL4507303, “Data for DCP probe TP-004” (2021)

How the values were obtained:
[1] = biological target: Calcium/calmodulin-dependent protein kinase type 1D (Homo sapiens) (UniProt Q8IU85); conditions: Compound concentration 1000.0 nM
[2] = biological target: Mitogen-activated protein kinase 14 (Homo sapiens) (UniProt Q16539); conditions: Compound concentration 1000.0 nM
[3] = biological target: Tyrosine-protein kinase receptor TYRO3 (Homo sapiens) (UniProt Q06418); conditions: Compound concentration 1000.0 nM
[4] = biological target: RAC-gamma serine/threonine-protein kinase (Homo sapiens) (UniProt Q9Y243); conditions: Compound concentration 1000.0 nM
[5] = biological target: Dual specificity tyrosine-phosphorylation-regulated kinase 1B (Homo sapiens) (UniProt Q9Y463); conditions: Compound concentration 1000.0 nM
[6] = biological target: Serine/threonine-protein kinase pim-3 (Homo sapiens) (UniProt Q86V86); conditions: Compound concentration 1000.0 nM
[7] = biological target: Fibroblast growth factor receptor 2 (Homo sapiens) (UniProt P21802); conditions: Compound concentration 1000.0 nM
[8] = biological target: Serine/threonine-protein kinase 17A (Homo sapiens) (UniProt Q9UEE5); conditions: Compound concentration 1000.0 nM
[9] = biological target: Cyclin-dependent kinase-like 2 (Homo sapiens) (UniProt Q92772); conditions: Compound concentration 1000.0 nM
[10] = biological target: Wee1-like protein kinase 2 (Homo sapiens) (UniProt P0C1S8); conditions: Compound concentration 1000.0 nM
[11] = biological target: STE20-like serine/threonine-protein kinase (Homo sapiens) (UniProt Q9H2G2); conditions: Compound concentration 1000.0 nM
[12] = test system: ALK tyrosine kinase receptor (Homo sapiens), Q9UM73 [L1196M]; conditions: Compound concentration 1000.0 nM
[13] = biological target: Mitogen-activated protein kinase 11 (Homo sapiens) (UniProt Q15759); conditions: Compound concentration 1000.0 nM
[14] = biological target: Serine/threonine-protein kinase BRSK1 (Homo sapiens) (UniProt Q8TDC3); conditions: Compound concentration 1000.0 nM
[15] = biological target: Ephrin type-B receptor 3 (Homo sapiens) (UniProt P54753); conditions: Compound concentration 1000.0 nM
[16] = biological target: Myosin light chain kinase, smooth muscle (Homo sapiens) (UniProt Q15746); conditions: Compound concentration 1000.0 nM
[17] = test system: Tyrosine-protein kinase ABL1 (Homo sapiens), P00519 [Y253F]; conditions: Compound concentration 1000.0 nM
[18] = biological target: 5-hydroxytryptamine receptor 2B (Homo sapiens) (UniProt P41595); conditions: Compound concentration 10.0 uM
[19] = biological target: Ribosomal protein S6 kinase alpha-1 (Homo sapiens) (UniProt Q15418); conditions: Compound concentration 1000.0 nM
[20] = biological target: Serine/threonine-protein kinase NLK (Homo sapiens) (UniProt Q9UBE8); conditions: Compound concentration 1000.0 nM
[21] = biological target: STE20/SPS1-related proline-alanine-rich protein kinase (Homo sapiens) (UniProt Q9UEW8); conditions: Compound concentration 1000.0 nM
[22] = biological target: Ephrin type-B receptor 1 (Homo sapiens) (UniProt P54762); conditions: Compound concentration 1000.0 nM
[23] = biological target: Phosphorylase b kinase regulatory subunit alpha, liver isoform (Homo sapiens) (UniProt P46019); conditions: Compound concentration 1000.0 nM
[24] = test system: Epidermal growth factor receptor (Homo sapiens), P00533 [UNDEFINED MUTATION]; conditions: Compound concentration 1000.0 nM
[25] = biological target: Phosphatidylinositol 3-kinase catalytic subunit type 3 (Homo sapiens) (UniProt Q8NEB9); conditions: Compound concentration 1000.0 nM
[26] = test system: Mast/stem cell growth factor receptor Kit (Homo sapiens), P10721 [V559D]; conditions: Compound concentration 1000.0 nM
[27] = biological target: Mitogen-activated protein kinase kinase kinase 6 (Homo sapiens) (UniProt O95382); conditions: Compound concentration 1000.0 nM
[28] = test system: Epidermal growth factor receptor (Homo sapiens), P00533 [UNDEFINED MUTATION]; conditions: Compound concentration 1000.0 nM; remark: listed apart in the source
[29] = biological target: Serine/threonine-protein kinase Nek3 (Homo sapiens) (UniProt P51956); conditions: Compound concentration 1000.0 nM
[30] = biological target: Casein kinase I isoform gamma-1 (Homo sapiens) (UniProt Q9HCP0); conditions: Compound concentration 1000.0 nM
[31] = biological target: Serine/threonine-protein kinase DCLK2 (Homo sapiens) (UniProt Q8N568); conditions: Compound concentration 1000.0 nM
[32] = biological target: Insulin-like growth factor 1 receptor (Homo sapiens) (UniProt P08069); conditions: Compound concentration 1000.0 nM
[33] = biological target: Dual specificity mitogen-activated protein kinase kinase 1 (Homo sapiens) (UniProt Q02750); conditions: Compound concentration 1000.0 nM
[34] = test system: Receptor-type tyrosine-protein kinase FLT3 (Homo sapiens), P36888 [UNDEFINED MUTATION]; conditions: Compound concentration 1000.0 nM
[35] = biological target: Serine/threonine-protein kinase SBK1 (Homo sapiens) (UniProt Q52WX2); conditions: Compound concentration 1000.0 nM
[36] = biological target: Serine/threonine-protein kinase Nek11 (Homo sapiens) (UniProt Q8NG66); conditions: Compound concentration 1000.0 nM
[37] = biological target: Ribosomal protein S6 kinase beta-1 (Homo sapiens) (UniProt P23443); conditions: Compound concentration 1000.0 nM
[38] = biological target: Serine/threonine-protein kinase 36 (Homo sapiens) (UniProt Q9NRP7); conditions: Compound concentration 1000.0 nM
[39] = biological target: Proto-oncogene tyrosine-protein kinase Src (Homo sapiens) (UniProt P12931); conditions: Compound concentration 1000.0 nM
[40] = biological target: Protein-tyrosine kinase 6 (Homo sapiens) (UniProt Q13882); conditions: Compound concentration 1000.0 nM
[41] = biological target: Ribosomal protein S6 kinase alpha-3 (Homo sapiens) (UniProt P51812); conditions: Compound concentration 1000.0 nM
[42] = biological target: Mitogen-activated protein kinase 10 (Homo sapiens) (UniProt P53779); conditions: Compound concentration 1000.0 nM
[43] = biological target: Tyrosine-protein kinase Fgr (Homo sapiens) (UniProt P09769); conditions: Compound concentration 1000.0 nM
[44] = biological target: Serine/threonine-protein kinase 33 (Homo sapiens) (UniProt Q9BYT3); conditions: Compound concentration 1000.0 nM
[45] = biological target: BDNF/NT-3 growth factors receptor (Homo sapiens) (UniProt Q16620); conditions: Compound concentration 1000.0 nM

Epidermal growth factor receptor (Homo sapiens), P00533 [UNDEFINED MUTATION], sequence (P00533 whole entry, looked up, change not shown): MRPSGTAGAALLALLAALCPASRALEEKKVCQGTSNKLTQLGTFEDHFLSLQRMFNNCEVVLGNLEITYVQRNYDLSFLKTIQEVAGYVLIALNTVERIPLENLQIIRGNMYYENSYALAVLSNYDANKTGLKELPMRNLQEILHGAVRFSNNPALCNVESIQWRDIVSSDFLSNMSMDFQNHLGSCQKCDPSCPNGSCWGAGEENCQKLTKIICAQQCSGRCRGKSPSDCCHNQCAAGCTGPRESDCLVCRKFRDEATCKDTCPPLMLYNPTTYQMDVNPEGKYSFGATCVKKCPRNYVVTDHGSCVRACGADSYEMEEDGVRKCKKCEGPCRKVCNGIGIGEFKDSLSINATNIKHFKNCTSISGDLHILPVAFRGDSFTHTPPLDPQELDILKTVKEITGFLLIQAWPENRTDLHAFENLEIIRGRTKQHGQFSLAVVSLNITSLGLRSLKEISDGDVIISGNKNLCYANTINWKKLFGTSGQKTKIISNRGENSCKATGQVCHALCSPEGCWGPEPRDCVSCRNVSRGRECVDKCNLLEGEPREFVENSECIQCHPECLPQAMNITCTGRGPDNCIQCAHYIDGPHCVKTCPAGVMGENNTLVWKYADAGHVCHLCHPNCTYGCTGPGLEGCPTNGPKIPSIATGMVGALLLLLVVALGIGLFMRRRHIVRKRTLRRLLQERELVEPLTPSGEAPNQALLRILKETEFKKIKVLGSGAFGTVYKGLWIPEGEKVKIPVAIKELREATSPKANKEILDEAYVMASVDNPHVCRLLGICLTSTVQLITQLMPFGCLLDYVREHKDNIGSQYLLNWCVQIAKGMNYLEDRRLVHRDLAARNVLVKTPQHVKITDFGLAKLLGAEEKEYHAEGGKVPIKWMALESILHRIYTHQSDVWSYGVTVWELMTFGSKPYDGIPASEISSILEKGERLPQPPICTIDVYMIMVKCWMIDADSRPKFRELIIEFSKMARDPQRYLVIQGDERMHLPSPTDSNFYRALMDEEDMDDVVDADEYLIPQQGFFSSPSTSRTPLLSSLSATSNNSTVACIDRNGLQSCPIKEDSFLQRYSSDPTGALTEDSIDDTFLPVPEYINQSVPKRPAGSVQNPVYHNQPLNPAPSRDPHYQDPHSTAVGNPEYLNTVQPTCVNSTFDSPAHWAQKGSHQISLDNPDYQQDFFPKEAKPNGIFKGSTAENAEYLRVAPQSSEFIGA
Mitogen-activated protein kinase kinase kinase 6 (Homo sapiens), sequence (O95382 whole entry): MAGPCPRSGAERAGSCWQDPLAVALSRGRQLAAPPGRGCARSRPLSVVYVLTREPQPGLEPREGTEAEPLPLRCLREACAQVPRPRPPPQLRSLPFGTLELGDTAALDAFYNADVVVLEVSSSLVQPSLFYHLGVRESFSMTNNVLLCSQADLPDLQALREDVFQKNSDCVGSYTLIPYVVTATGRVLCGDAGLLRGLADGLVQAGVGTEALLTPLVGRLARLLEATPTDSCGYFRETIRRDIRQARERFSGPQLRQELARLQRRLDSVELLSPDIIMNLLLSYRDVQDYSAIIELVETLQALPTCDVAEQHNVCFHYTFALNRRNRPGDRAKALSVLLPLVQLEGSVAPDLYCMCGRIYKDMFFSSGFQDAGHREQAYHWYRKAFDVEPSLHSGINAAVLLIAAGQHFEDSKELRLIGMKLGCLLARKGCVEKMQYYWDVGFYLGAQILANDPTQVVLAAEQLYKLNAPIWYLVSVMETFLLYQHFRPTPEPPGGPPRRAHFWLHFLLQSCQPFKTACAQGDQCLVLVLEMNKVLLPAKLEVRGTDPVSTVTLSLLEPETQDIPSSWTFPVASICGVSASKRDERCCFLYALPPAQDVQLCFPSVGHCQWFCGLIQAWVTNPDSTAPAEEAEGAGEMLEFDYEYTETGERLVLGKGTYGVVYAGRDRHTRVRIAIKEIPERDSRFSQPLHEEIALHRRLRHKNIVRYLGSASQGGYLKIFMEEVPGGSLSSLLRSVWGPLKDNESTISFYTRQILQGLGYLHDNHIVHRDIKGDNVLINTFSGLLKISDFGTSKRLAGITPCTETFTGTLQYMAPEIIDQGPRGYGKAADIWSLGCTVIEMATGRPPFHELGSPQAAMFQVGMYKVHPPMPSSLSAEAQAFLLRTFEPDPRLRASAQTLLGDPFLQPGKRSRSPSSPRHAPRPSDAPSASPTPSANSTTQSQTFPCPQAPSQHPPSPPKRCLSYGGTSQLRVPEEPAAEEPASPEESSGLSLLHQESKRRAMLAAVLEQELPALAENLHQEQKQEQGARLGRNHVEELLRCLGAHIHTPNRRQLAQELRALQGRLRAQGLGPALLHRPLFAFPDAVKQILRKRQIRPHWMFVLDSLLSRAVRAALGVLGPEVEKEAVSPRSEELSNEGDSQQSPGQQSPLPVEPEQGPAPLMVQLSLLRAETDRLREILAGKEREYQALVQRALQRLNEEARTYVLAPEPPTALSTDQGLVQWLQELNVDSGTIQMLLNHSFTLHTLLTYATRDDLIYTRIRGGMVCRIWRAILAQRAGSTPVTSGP
Proto-oncogene tyrosine-protein kinase Src (Homo sapiens), sequence (P12931 2-536 limits assumed): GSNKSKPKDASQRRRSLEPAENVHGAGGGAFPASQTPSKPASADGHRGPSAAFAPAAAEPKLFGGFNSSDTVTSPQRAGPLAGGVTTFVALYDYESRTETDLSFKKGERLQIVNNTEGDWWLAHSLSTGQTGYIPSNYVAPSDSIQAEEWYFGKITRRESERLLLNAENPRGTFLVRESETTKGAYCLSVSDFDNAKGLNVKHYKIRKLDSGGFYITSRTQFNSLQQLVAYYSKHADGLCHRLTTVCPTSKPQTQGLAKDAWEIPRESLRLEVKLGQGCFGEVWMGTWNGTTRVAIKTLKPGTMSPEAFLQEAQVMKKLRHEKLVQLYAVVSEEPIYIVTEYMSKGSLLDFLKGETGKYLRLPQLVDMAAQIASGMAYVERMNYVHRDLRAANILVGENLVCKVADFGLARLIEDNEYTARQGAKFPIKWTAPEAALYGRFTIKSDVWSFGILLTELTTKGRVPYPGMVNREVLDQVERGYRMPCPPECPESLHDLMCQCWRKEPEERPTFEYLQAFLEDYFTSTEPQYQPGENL
Tyrosine-protein kinase Fgr (Homo sapiens), sequence (P09769 2-529 limits assumed): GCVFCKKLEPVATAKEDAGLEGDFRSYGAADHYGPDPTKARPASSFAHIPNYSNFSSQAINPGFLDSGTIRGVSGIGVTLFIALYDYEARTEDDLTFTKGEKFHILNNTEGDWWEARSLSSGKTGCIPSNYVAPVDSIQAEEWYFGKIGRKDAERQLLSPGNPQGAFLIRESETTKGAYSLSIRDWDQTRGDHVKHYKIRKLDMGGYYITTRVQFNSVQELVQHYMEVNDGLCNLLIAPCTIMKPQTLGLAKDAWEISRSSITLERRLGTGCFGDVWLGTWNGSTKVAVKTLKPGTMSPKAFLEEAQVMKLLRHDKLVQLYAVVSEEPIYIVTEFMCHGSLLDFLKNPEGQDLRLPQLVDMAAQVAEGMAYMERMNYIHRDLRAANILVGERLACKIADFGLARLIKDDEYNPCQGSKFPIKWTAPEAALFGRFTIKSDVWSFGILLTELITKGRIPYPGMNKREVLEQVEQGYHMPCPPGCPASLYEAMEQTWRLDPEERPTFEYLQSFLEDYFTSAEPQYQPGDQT
Serine/threonine-protein kinase BRSK1 (Homo sapiens), sequence (Q8TDC3 whole entry): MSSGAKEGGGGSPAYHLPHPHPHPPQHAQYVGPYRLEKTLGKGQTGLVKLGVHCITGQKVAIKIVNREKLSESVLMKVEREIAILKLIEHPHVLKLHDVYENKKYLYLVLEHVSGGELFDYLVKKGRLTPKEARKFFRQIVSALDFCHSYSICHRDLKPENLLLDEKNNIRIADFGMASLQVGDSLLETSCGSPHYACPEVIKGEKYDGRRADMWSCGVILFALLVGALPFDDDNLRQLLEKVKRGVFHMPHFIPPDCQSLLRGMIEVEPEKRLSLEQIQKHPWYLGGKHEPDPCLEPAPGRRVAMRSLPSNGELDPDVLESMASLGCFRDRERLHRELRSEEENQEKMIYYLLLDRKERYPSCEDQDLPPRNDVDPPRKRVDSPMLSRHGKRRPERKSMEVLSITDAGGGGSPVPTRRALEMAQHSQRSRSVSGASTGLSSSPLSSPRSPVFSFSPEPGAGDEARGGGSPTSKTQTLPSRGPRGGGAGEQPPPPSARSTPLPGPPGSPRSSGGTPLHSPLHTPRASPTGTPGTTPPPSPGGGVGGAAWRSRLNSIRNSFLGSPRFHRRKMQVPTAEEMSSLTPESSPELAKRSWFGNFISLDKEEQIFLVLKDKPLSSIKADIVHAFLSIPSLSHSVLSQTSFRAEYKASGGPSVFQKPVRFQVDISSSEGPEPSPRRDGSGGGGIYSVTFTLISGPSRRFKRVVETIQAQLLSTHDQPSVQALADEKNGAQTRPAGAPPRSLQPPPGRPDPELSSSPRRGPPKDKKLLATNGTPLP
5-hydroxytryptamine receptor 2B (Homo sapiens), sequence (P41595 whole entry): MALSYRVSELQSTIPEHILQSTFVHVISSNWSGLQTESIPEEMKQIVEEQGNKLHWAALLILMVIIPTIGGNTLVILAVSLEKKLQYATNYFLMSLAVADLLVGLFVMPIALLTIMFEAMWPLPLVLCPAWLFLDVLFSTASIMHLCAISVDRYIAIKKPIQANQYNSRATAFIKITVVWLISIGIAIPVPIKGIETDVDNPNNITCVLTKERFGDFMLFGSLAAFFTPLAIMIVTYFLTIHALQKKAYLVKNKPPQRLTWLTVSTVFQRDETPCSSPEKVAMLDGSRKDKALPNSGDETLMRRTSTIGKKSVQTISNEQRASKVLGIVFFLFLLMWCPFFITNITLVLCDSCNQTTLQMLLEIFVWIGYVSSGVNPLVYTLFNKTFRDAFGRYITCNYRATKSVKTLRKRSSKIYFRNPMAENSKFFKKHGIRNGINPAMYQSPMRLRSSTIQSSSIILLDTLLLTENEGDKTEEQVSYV

Cc1nc(N2CC[C@@H](O)C2)ncc1-c1cc(C(F)(F)F)cc2[nH]ncc12 [TP-004]
residual activity [1]: 100%
residual activity [2]: 100%
residual activity [3]: 66%
residual activity [4]: 77%
residual activity [5]: 96%
residual activity [6]: 100%
residual activity [7]: 100%
residual activity [8]: 100%
residual activity [9]: 100%
residual activity [10]: 100%
residual activity [11]: 98%
residual activity [12]: 98%
residual activity [13]: 100%
residual activity [14]: 100%
residual activity [15]: 100%
residual activity [16]: 100%
residual activity [17]: 70%
inhibition [18]: -1.83%
residual activity [19]: 100%
residual activity [20]: 100%
residual activity [21]: 99%
residual activity [22]: 73%
residual activity [23]: 100%
residual activity [24]: 99%
residual activity [25]: 63%
residual activity [26]: 58%
residual activity [27]: 68%
residual activity [28]: 64%
residual activity [29]: 60%
residual activity [30]: 78%
residual activity [31]: 100%
residual activity [32]: 100%
residual activity [33]: 83%
residual activity [34]: 54%
residual activity [35]: 82%
residual activity [36]: 87%
residual activity [37]: 90%
residual activity [38]: 100%
residual activity [39]: 95%
residual activity [40]: 89%
residual activity [41]: 48%
residual activity [42]: 72%
residual activity [43]: 100%
residual activity [44]: 100%
residual activity [45]: 53%
